pIC50: −log10 of the molar value.
Test system: A375 multi-cell spheroids with HUVEC/MSC, viability
Assay: Anticancer human tumor A375 cell line growth inhibition [GQUAD];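 note: spheroids exposed to compounds for seven days before readout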
Details: for pIC50: curve of first compound; for viability, T/C: stronger effect = lower value
Procedure, shortened: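 Viability of tumor cells grown as complex spheroids with endothelial and stromal cells, exposed to drug combinations. Top concentration at or near clinical Cmax (else 10 microM), diluted in half-log increments.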

[1] = second compound 0.0316 µM, first compound 0.0316 µM
[2] = second compound 0.0316 µM, first compound 0.1 µM
[3] = second compound 0.0316 µM, first compound 0.316 µM
[4] = second compound 0.0316 µM, first compound 1 µM
[5] = second compound 0.0316 µM, first compound 3.16 µM
[6] = second compound 0.0316 µM, first compound 10 µM
[7] = second compound 0.1 µM, first compound 0.0316 µM
[8] = second compound 0.1 µM, first compound 0.1 µM
[9] = second compound 0.1 µM, first compound 0.316 µM
[10] = second compound 0.1 µM, first compound 1 µM
[11] = second compound 0.1 µM, first compound 3.16 µM
[12] = second compound 0.1 µM, first compound 10 µM
[13] = second compound 0.316 µM, first compound 0.0316 µM
[14] = second compound 0.316 µM, first compound 0.1 µM
[15] = second compound 0.316 µM, first compound 0.316 µM
[16] = second compound 0.316 µM, first compound 1 µM
[17] = second compound 0.316 µM, first compound 3.16 µM
[18] = second compound 0.316 µM, first compound 10 µM
[19] = second compound 1 µM, first compound 0.0316 µM
[20] = second compound 1 µM, first compound 0.1 µM
[21] = second compound 1 µM, first compound 0.316 µM
[22] = second compound 1 µM, first compound 1 µM
[23] = second compound 1 µM, first compound 3.16 µM
[24] = second compound 1 µM, first compound 10 µM
[25] = second compound 3.16 µM, first compound 0.0316 µM
[26] = second compound 3.16 µM, first compound 0.1 µM
[27] = second compound 3.16 µM, first compound 0.316 µM
[28] = second compound 3.16 µM, first compound 1 µM
[29] = second compound 3.16 µM, first compound 3.16 µM
[30] = second compound 3.16 µM, first compound 10 µM
[31] = second compound 10 µM, first compound 0.0316 µM
[32] = second compound 10 µM, first compound 0.1 µM
[33] = second compound 10 µM, first compound 0.316 µM
[34] = second compound 10 µM, first compound 1 µM
[35] = second compound 10 µM, first compound 3.16 µM
[36] = second compound 10 µM, first compound 10 µM

With `C=CC(=O)N1CCN(c2nc(=O)n(-c3c(C)ccnc3C(C)C)c3nc(-c4c(O)cccc4F)c(F)cc23)C(C)C1` (stereo not drawn) + Cc1cnc(CNC(=O)c2c(=O)c3ccc(N4CCCN(C)CC4)nc3n3c2sc2ccccc23)cn1 the pIC50 (second compound 0.0316 µM) was less than 5.00, the pIC50 (second compound 0.1 µM) was less than 5.00 and the pIC50 (second compound 0.316 µM) was less than 5.00. The pIC50 (second compound 1 µM) was greater than 7.50, the pIC50 (second compound 3.16 µM) was greater than 7.50 and the pIC50 (second compound 10 µM) was greater than 7.50. For the same molecule, the viability, T/C [1] was 94.5%, the viability, T/C [2] was 103% and the viability, T/C [3] was 109%. The viability, T/C [4] was 106%, the viability, T/C [5] was 145% and the viability, T/C [6] was 129%. The viability, T/C [7] was 86.7%, the viability, T/C [8] was 77.3% and the viability, T/C [9] was 92.9%. For the same molecule, the viability, T/C [10] was 82.3%, the viability, T/C [11] was 95% and the viability, T/C [12] was 83.2%. For the same molecule, the viability, T/C [13] was 51.6%, the viability, T/C [14] was 56.6% and the viability, T/C [15] was 55.4%. It also gave a viability, T/C [16] of 57%, a viability, T/C [17] of 59.2% and a viability, T/C [18] of 58%. It also gave a viability, T/C [19] of 42.4%, a viability, T/C [20] of 47.9% and a viability, T/C [21] of 48.8%. It also gave a viability, T/C [22] of 48.6%, a viability, T/C [23] of 45.1% and a viability, T/C [24] of 40.2%. It also gave a viability, T/C [25] of 34.9%, a viability, T/C [26] of 32.5% and a viability, T/C [27] of 32.7%. For the same molecule, the viability, T/C [28] was 36.4%, the viability, T/C [29] was 37.6% and the viability, T/C [30] was 34.1%. The viability, T/C [31] was 28.8%, the viability, T/C [32] was 32.9% and the viability, T/C [33] was 33%. It also gave a viability, T/C [34] of 33.5%, a viability, T/C [35] of 31.6% and a viability, T/C [36] of 28.5%.
For `Cc1cccc(N(C)C(=O)C2C(O)CCN2c2nc(C)cc(C(F)(F)F)c2C#N)c1` (stereo not drawn) + Cc1cnc(CNC(=O)c2c(=O)c3ccc(N4CCCN(C)CC4)nc3n3c2sc2ccccc23)cn1, the pIC50 (second compound 0.0316 µM) was less than 5.00, the pIC50 (second compound 0.1 µM) was less than 5.00 and the pIC50 (second compound 0.316 µM) was less than 5.00. It also gave a pIC50 (second compound 1 µM) greater than 7.50, a pIC50 (second compound 3.16 µM) greater than 7.50 and a pIC50 (second compound 10 µM) greater than 7.50. It also gave a viability, T/C [1] of 104%, a viability, T/C [2] of 89.9% and a viability, T/C [3] of 104%. It also gave a viability, T/C [4] of 107%, a viability, T/C [5] of 99.3% and a viability, T/C [6] of 122%. It also gave a viability, T/C [7] of 75.8%, a viability, T/C [8] of 69.7% and a viability, T/C [9] of 77.2%. The viability, T/C [10] was 76%, the viability, T/C [11] was 78.8% and the viability, T/C [12] was 71.8%. It also gave a viability, T/C [13] of 55.6%, a viability, T/C [14] of 52% and a viability, T/C [15] of 50.4%. It also gave a viability, T/C [16] of 52.2%, a viability, T/C [17] of 63.3% and a viability, T/C [18] of 60.9%. The viability, T/C [19] was 42.9%, the viability, T/C [20] was 41.6% and the viability, T/C [21] was 42.8%. For the same molecule, the viability, T/C [22] was 41.8%, the viability, T/C [23] was 49.2% and the viability, T/C [24] was 38.4%. It also gave a viability, T/C [25] of 30.5%, a viability, T/C [26] of 31.4% and a viability, T/C [27] of 41%. It also gave a viability, T/C [28] of 31.8%, a viability, T/C [29] of 35.6% and a viability, T/C [30] of 38.4%. The viability, T/C [31] was 31.8%, the viability, T/C [32] was 29.8% and the viability, T/C [33] was 33.9%. It also gave a viability, T/C [34] of 33.1%, a viability, T/C [35] of 35.4% and a viability, T/C [36] of 32.1%.
With `Cn1ncnc1[C@H]1c2n[nH]c(=O)c3cc(F)cc(c23)N[C@@H]1c1ccc(F)cc1` + Cc1cnc(CNC(=O)c2c(=O)c3ccc(N4CCCN(C)CC4)nc3n3c2sc2ccccc23)cn1 the pIC50 (second compound 0.0316 µM) was less than 6.50, the pIC50 (second compound 0.1 µM) was less than 6.50 and the pIC50 (second compound 0.316 µM) was 7.39. It also gave a pIC50 (second compound 1 µM) greater than 9.00, a pIC50 (second compound 3.16 µM) greater than 9.00 and a pIC50 (second compound 10 µM) greater than 9.00. The viability, T/C (second compound 0.0316 µM, first compound 0.000999 µM) was 100%, the viability, T/C (second compound 0.0316 µM, first compound 0.00316 µM) was 98.9% and the viability, T/C (second compound 0.0316 µM, first compound 0.00999 µM) was 107%. For the same molecule, the viability, T/C [1] was 97.4%, the viability, T/C (second compound 0.0316 µM, first compound 0.0999 µM) was 75.6% and the viability, T/C [3] was 90.6%. For the same molecule, the viability, T/C (second compound 0.1 µM, first compound 0.000999 µM) was 98.7%, the viability, T/C (second compound 0.1 µM, first compound 0.00316 µM) was 73.7% and the viability, T/C (second compound 0.1 µM, first compound 0.00999 µM) was 72.2%. The viability, T/C [7] was 68.9%, the viability, T/C (second compound 0.1 µM, first compound 0.0999 µM) was 55.7% and the viability, T/C [9] was 60.5%. It also gave a viability, T/C (second compound 0.316 µM, first compound 0.000999 µM) of 55.8%, a viability, T/C (second compound 0.316 µM, first compound 0.00316 µM) of 55.5% and a viability, T/C (second compound 0.316 µM, first compound 0.00999 µM) of 49.4%. The viability, T/C [13] was 53.8%, the viability, T/C (second compound 0.316 µM, first compound 0.0999 µM) was 46.6% and the viability, T/C [15] was 43%. It also gave a viability, T/C (second compound 1 µM, first compound 0.000999 µM) of 39%, a viability, T/C (second compound 1 µM, first compound 0.00316 µM) of 47.1% and a viability, T/C (second compound 1 µM, first compound 0.00999 µM) of 44.3%. The viability, T/C [19] was 41.8%, the viability, T/C (second compound 1 µM, first compound 0.0999 µM) was 41.4% and the viability, T/C [21] was 44.3%. The viability, T/C (second compound 3.16 µM, first compound 0.000999 µM) was 35.9%, the viability, T/C (second compound 3.16 µM, first compound 0.00316 µM) was 43.8% and the viability, T/C (second compound 3.16 µM, first compound 0.00999 µM) was 34.2%. For the same molecule, the viability, T/C [25] was 30.3%, the viability, T/C (second compound 3.16 µM, first compound 0.0999 µM) was 34.2% and the viability, T/C [27] was 32.7%. The viability, T/C (second compound 10 µM, first compound 0.000999 µM) was 29.1%, the viability, T/C (second compound 10 µM, first compound 0.00316 µM) was 32.7% and the viability, T/C (second compound 10 µM, first compound 0.00999 µM) was 33%. For the same molecule, the viability, T/C [31] was 32.4%, the viability, T/C (second compound 10 µM, first compound 0.0999 µM) was 36.2% and the viability, T/C [33] was 32.3%.
`O=C(c1cc(Cc2n[nH]c(=O)c3ccccc23)ccc1F)N1CCN(C(=O)C2CC2)CC1` + Cc1cnc(CNC(=O)c2c(=O)c3ccc(N4CCCN(C)CC4)nc3n3c2sc2ccccc23)cn1 was tested, and the pIC50 (second compound 0.0316 µM) was less than 5.00, the pIC50 (second compound 0.1 µM) was less than 5.00 and the pIC50 (second compound 0.316 µM) was 6.12. It also gave a pIC50 (second compound 1 µM) greater than 7.50, a pIC50 (second compound 3.16 µM) greater than 7.50 and a pIC50 (second compound 10 µM) greater than 7.50. The viability, T/C [1] was 108%, the viability, T/C [2] was 98.9% and the viability, T/C [3] was 101%. The viability, T/C [4] was 95.5%, the viability, T/C [5] was 85.4% and the viability, T/C [6] was 68.1%. The viability, T/C [7] was 80.9%, the viability, T/C [8] was 71.1% and the viability, T/C [9] was 65.8%. For the same molecule, the viability, T/C [10] was 65.3%, the viability, T/C [11] was 61.8% and the viability, T/C [12] was 51.8%. The viability, T/C [13] was 49.5%, the viability, T/C [14] was 57.8% and the viability, T/C [15] was 58.6%. For the same molecule, the viability, T/C [16] was 48.3%, the viability, T/C [17] was 45% and the viability, T/C [18] was 42%. The viability, T/C [19] was 40.6%, the viability, T/C [20] was 40.6% and the viability, T/C [21] was 43.6%. It also gave a viability, T/C [22] of 35.7%, a viability, T/C [23] of 38% and a viability, T/C [24] of 34.7%. The viability, T/C [25] was 32%, the viability, T/C [26] was 36.7% and the viability, T/C [27] was 43%. The viability, T/C [28] was 31.4%, the viability, T/C [29] was 30.8% and the viability, T/C [30] was 32.7%. For the same molecule, the viability, T/C [31] was 26.9%, the viability, T/C [32] was 30.4% and the viability, T/C [33] was 30.5%. For the same molecule, the viability, T/C [34] was 29.2%, the viability, T/C [35] was 30.2% and the viability, T/C [36] was 24.8%.

— PubChem BioAssay AID2060485 (Molecular Pharmacology Branch, DTP, NCI, 2025)
